Publication PMC3884022 (Journal of Hematology & Oncology, 2014)

What was measured:
[1] = target: 2D6 (Homo sapiens, UniProt P10635); assay: CYP2D6 inhibition; assay type: in vitro ADME
[2] = test system: AKT1; set-up: method as in earlier work; settings: cited from earlier work
[3] = test system: AKT3; set-up: method as in earlier work; settings: cited from earlier work
[4] = test system: NCI-H292 and A2780 tumor cells; settings: with carboplatin and docetaxel; cited from earlier work
[5] = test system: mouse NCI-H292 tumor xenografts; settings: 3 times per week and QW schedule of MK-2206; cited from earlier work

Chain of 2D6 (P10635 whole entry): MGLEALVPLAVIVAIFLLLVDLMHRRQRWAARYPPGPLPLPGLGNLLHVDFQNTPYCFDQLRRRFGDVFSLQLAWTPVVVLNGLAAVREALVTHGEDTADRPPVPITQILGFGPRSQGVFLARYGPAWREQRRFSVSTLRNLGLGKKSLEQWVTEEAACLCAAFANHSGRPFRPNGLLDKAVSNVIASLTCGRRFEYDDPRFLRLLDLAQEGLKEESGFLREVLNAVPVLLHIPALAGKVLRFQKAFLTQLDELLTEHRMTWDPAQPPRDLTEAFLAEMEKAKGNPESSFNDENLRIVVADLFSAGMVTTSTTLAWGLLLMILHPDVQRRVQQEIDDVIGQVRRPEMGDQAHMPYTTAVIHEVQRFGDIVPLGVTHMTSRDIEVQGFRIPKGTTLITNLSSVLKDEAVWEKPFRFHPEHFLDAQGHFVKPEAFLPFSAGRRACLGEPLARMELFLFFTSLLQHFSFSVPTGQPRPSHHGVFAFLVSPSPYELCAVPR

NC1(c2ccc(-c3nc4ccn5c(=O)[nH]nc5c4cc3-c3ccccc3)cc2)CCC1 [MK-2206]
IC50 [1]: > 35 µM
IC50 [3]: 0.065 µM
inhibition of tumor cell growth in combination [4]: synergy
tumor growth suppression in combination with erlotinib [5]: significantly greater in vivo tumor growth suppression and tumor regressions over each single agent
